The values that follow come from PubChem BioAssay (NCI).

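Dose response: 5 concentrations. Exposure: 48 h. Format: 96-well plates. Endpoint: linear interpolation; highest concentration if not reached. The concentration for full growth arrest is given as TGI.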

Among the test systems are MDA-MB-435; NCI-H460 lung; OVCAR-3 ovarian; HOP-92 NSCLC; BT-549 breast; DU-145 prostate; NCI-H522 lung; SK-OV-3 ovarian; ACHN renal; OVCAR-4 ovarian; SF-268 CNS; PC-3 prostate; A549 NSCLC; LOX IMVI melanoma; HL-60(TB) leukemia; SN12C renal; MCF7 breast; HOP-62 NSCLC.
What all share (test): NCI-60 cell line screen, 48 h

Take `CCOC(=O)c1cc(Br)c(-c2cc(C)no2)[nH]1`: the TGI was 38.8 µM in the assay on MDA-MB-435; 55 µM in the assay on NCI-H460 lung; 95.1 µM in the assay with OVCAR-3 ovarian; above 100 µM in the assay on HOP-92 NSCLC; above 100 µM in the assay with BT-549 breast; 73.8 µM with DU-145 prostate. Also, the TGI was 78.9 µM with NCI-H522 lung; above 100 µM in the assay on SK-OV-3 ovarian; above 100 µM in the assay on ACHN renal; 63 µM in the assay on OVCAR-4 ovarian; above 100 µM in the assay on SF-268 CNS; above 100 µM in the assay with PC-3 prostate. Moreover, the TGI with A549 NSCLC is above 100 µM; in the assay on LOX IMVI melanoma, above 100 µM; in the assay with HL-60(TB) leukemia, 83.6 µM; in the assay with SN12C renal, above 100 µM.

Regarding `O=C1c2c(ccc3c2CCC3)CC12Cc1ccccc1C2`, the TGI with MDA-MB-435 is above 100 µM; with NCI-H460 lung it was 96.1 µM; in the assay on OVCAR-3 ovarian, 82.2 µM; in the assay with HOP-92 NSCLC it was 41 µM; in the assay on DU-145 prostate, above 100 µM; with MCF7 breast, above 100 µM. The TGI was 73.7 µM with NCI-H522 lung; above 100 µM with SK-OV-3 ovarian; above 100 µM with ACHN renal; above 100 µM in the assay on OVCAR-4 ovarian; above 100 µM in the assay on SF-268 CNS; above 100 µM in the assay with HOP-62 NSCLC. Also, the TGI in the assay with PC-3 prostate was above 100 µM; with A549 NSCLC, above 100 µM; with LOX IMVI melanoma, 31 µM; with HL-60(TB) leukemia, 34.9 µM; in the assay on SN12C renal, above 100 µM.

With `O=c1c(-c2ccccc2F)coc2cc(F)ccc12`, the TGI with MDA-MB-435, with NCI-H460 lung, with OVCAR-3 ovarian, with HOP-92 NSCLC, in the assay with BT-549 breast and with DU-145 prostate was above 100 µM each time. Further, the TGI in the assay with NCI-H522 lung, in the assay on SK-OV-3 ovarian, in the assay on ACHN renal, in the assay with OVCAR-4 ovarian, with SF-268 CNS and in the assay with HOP-62 NSCLC was above 100 µM throughout. Also, the TGI with PC-3 prostate, with A549 NSCLC, in the assay on LOX IMVI melanoma, in the assay on HL-60(TB) leukemia and in the assay on SN12C renal was above 100 µM each time.

As to `CC(C)(C)OC(=O)NCCCC(=O)NC1(c2cc3ccccc3s2)CCCCC1`, the TGI in the assay on MDA-MB-435 is 33.1 µM; with NCI-H460 lung it was 40.1 µM; in the assay with OVCAR-3 ovarian, 39.2 µM; with HOP-92 NSCLC, 37.6 µM; in the assay with BT-549 breast it was 32.7 µM; in the assay with DU-145 prostate it was above 100 µM. The TGI in the assay on MCF7 breast is 41 µM; in the assay on NCI-H522 lung, 34.1 µM; in the assay with SK-OV-3 ovarian, 99.5 µM; in the assay with ACHN renal, 41 µM; in the assay with OVCAR-4 ovarian, above 100 µM; in the assay on SF-268 CNS, 39.7 µM. For the same compound, the TGI was 41.5 µM with HOP-62 NSCLC; above 100 µM with A549 NSCLC; 29.6 µM in the assay with LOX IMVI melanoma; 24.8 µM with HL-60(TB) leukemia; 35.9 µM in the assay on SN12C renal.

Take `CC1=NN(c2nc(N)nc(C/C(N)=N/O)n2)C(C)(C)C1`: the TGI in the assay with MDA-MB-435, in the assay with NCI-H460 lung, in the assay on OVCAR-3 ovarian, with HOP-92 NSCLC, with BT-549 breast and in the assay with DU-145 prostate was above 100 µM each time. For the same compound, the TGI with MCF7 breast, with NCI-H522 lung, in the assay on SK-OV-3 ovarian, in the assay with ACHN renal, with OVCAR-4 ovarian and with SF-268 CNS was above 100 µM in each case. For the same compound, the TGI in the assay with HOP-62 NSCLC, in the assay on A549 NSCLC, in the assay on LOX IMVI melanoma, in the assay with HL-60(TB) leukemia and in the assay with SN12C renal was above 100 µM each time.

`CCOc1ccccc1-c1nc2c(s1)C(=O)c1ccccc1C2=O`: the TGI with MDA-MB-435 is 4.31 µM; in the assay with NCI-H460 lung, 39.2 µM; in the assay with OVCAR-3 ovarian, 8.01 µM; with HOP-92 NSCLC it was 25 µM; in the assay with DU-145 prostate, 36.5 µM; in the assay with MCF7 breast, 46.3 µM. Moreover, the TGI stood at 97.7 µM in the assay with NCI-H522 lung; 28.2 µM in the assay on SK-OV-3 ovarian; 29.2 µM in the assay with ACHN renal; 35 µM in the assay with OVCAR-4 ovarian; 29 µM in the assay on SF-268 CNS; 28.7 µM in the assay on HOP-62 NSCLC. For the same compound, the TGI in the assay with PC-3 prostate is 29.6 µM; in the assay with A549 NSCLC it was 36.9 µM; with LOX IMVI melanoma it was 16.7 µM; in the assay with HL-60(TB) leukemia, 4.4 µM; in the assay on SN12C renal, above 100 µM.

As for `Nc1ccc(C23CC4CC(C2)CC(c2ccc(N)cc2)(C4)C3)cc1`, the TGI in the assay on MDA-MB-435, in the assay on NCI-H460 lung, in the assay on OVCAR-3 ovarian, with HOP-92 NSCLC, in the assay on BT-549 breast and in the assay with DU-145 prostate was above 100 µM throughout. Also, the TGI with MCF7 breast, in the assay on ACHN renal, in the assay with OVCAR-4 ovarian, with SF-268 CNS, with HOP-62 NSCLC and in the assay on A549 NSCLC was above 100 µM in each case. Moreover, the TGI in the assay on LOX IMVI melanoma is above 100 µM; in the assay with HL-60(TB) leukemia, 51 µM; in the assay on SN12C renal it was 59.5 µM.

Regarding `CN(C)c1nncc2n[nH]nc12`, the TGI in the assay on MDA-MB-435, in the assay with OVCAR-3 ovarian, in the assay with HOP-92 NSCLC, in the assay with BT-549 breast, in the assay with MCF7 breast and in the assay with NCI-H522 lung was above 100 µM throughout. In addition, the TGI with SK-OV-3 ovarian, with ACHN renal, in the assay with OVCAR-4 ovarian, with HOP-62 NSCLC, with PC-3 prostate and with A549 NSCLC was above 100 µM in each case. Moreover, the TGI in the assay with LOX IMVI melanoma, in the assay with HL-60(TB) leukemia and in the assay with SN12C renal was above 100 µM throughout.
